Measured values reported in patent US20250017856A1, “CO-FORMULATION AND CO-DELIVERY OF IONIZABLE COLLOID FORMING DRUGS WITH NUCLEIC ACIDS” (THE GOVERNING COUNCIL OF THE UNIVERSITY OF TORONTO, priority 2023, published 2025).
Values joined by “and” are separate entries in the source; they are usually repeats but may differ in a detail not shown here. Equal entries are not always repeated.

Key:
[1] = Zeta potential (Malvern Zetasizer); format: physicochemical; conditions: FxNP, siFLuc, DSPC
Description: Zeta potential was measured by diluting FXNPs in phosphate to an ion concentration of 1 mM and using a Malvern Zetasizer Nano ZS instrument.

[2] = ionizable compound (fulvestrant analog); cited from earlier work
[3] = Hydrodynamic diameter and polydispersity index by dynamic light scattering; format: physicochemical; conditions: for Hydrodynamic diameter (nm) / PDI: FxNP, siFLuc, DSPC
Excerpt: (§1) [NT] antisense (SEQ ID NO: 2): [NT] where “d” denotes a DNA base), siFLuc-2 (sense (SEQ ID NO: 3): [NT] antisense (SEQ ID NO: 4): [NT] where “d” denotes a DNA base and “m” indicates a 2'-O-methyl RNA base), sinLuc (sense (SEQ ID NO: 5): [NT] antisense SEQ ID NO: 6): [NT] where “d” denotes a DNA base), […]1 (sense (SEQ ID NO: 7): [NT] antisense (SEQ ID NO: 8): [NT] where “d” denotes a DNA base and “m” indicates a 2'-O-methyl RNA base), siNT (sense (SEQ ID NO: 9): [NT] antisense (SEQ ID NO: 10): [NT] where “d” denotes a DNA base and “m” indicates a 2'-O-methyl RNA base), mFLuc (EZ Cap Firefly Luciferase mRNA (5-moUTP), ApexBio), rRNA or RNA from Torula utilis yeast (T.U. RNA) was diluted in citrate buffer (50 or 25 mM, pH 4), malate buffer (25 mM, pH 4.0) or acetate buffer (25 mM, pH 4.0). A lipid/drug mix concentration of 5.5 mM was used with a total flow rate of 9 mL/min at a 3:1 ratio of aqueous to organic phase. […] After formulation, buffer exchange into PBS or Tris-buffered saline (TBS; pH 8.5) was performed using Amicon Ultra-4 centrifugal filters (molecular weight cut-off 10 kDa). Hydrodynamic diameter, polydispersity index (PDI), and scattering intensity were measured by dynamic light scattering (DLS) using a DynaPro Plate Reader II (Wyatt Technologies). The instrument was configured with a 60 mW 830 nm laser and a detector angle of 158°. A 25 μL sample of each formulation was pipetted into each well of a 384-well plate and measured with 20 acquisitions per sample at 25° C. […] Quant-iT RiboGreen reagent was added, and fluorescence intensity was quantified using a Tecan Infinite […] plate reader.

[4] = RNA encapsulation efficiency (modified Quant-iT RiboGreen assay) and loading; format: physicochemical; conditions: for Encapsulation efficiency (%) / Small molecule drug mass % / siRNA mass %: FxNP, siFLuc, DSPC
Excerpt: as §1

[5] = system: firefly luciferase expression in mouse liver; assay: In vivo liver bioluminescence after i.v. injection of mFLuc nanoparticles; set-up: species or system BALB/c mice; conditions: tail vein, 1 mg/kg mRNA, 4 and 24 h
Description: Animal study protocols were approved by the Animal Care Committee at the University of Toronto and experiments were performed in accordance with the Guide to Care and Use of Experimental Animals (Canadian Council on Animal Care). FXNPs with encapsulated mFLuc and DIR (0.5 mol %) were administered (1 mg/kg in terms of mRNA) via tail vein injection to BALB/c mice. After 4 h and 24 h, mice were anesthetized using isoflurane and injected intraperitoneally with 150 mg/kg VivoGlo™ luciferin (Promega, Madison, WI). Whole-body luminescence was acquired by a PerkinElmer In-Vivo Imaging System Spectrum instrument after 10-20 minutes.

FLuc in SKOV3-FLuc cells = assay: Model gene knockdown, firefly luciferase; format: cell-based
Description: For single-dose studies, 5×10^3 SKOV3-FLuc or 2×10^3 Vero-nLucP cells in 100 μL were plated in each well of a white-wall 96-well plate (Costar 3610) and allowed to adhere overnight. FXNP suspensions were diluted in PBS and 10 μL of each tested formulation was dosed in triplicate, followed by 100 μL of complete cell growth media to promote mixing. The final encapsulated siRNA concentration in each well was 50.0 nM. For dose-response studies, 1.25×10^3 SKOV3-FLuc cells in 25 μL were plated in each well of a white-wall 384-well plate (Greiner Bio-one 781073) and allowed to adhere overnight. Nanoparticle suspensions were diluted in PBS and 5 μL of each tested formulation was dosed in triplicate, followed by 20 μL of complete cell growth media to promote mixing. The final encapsulated siRNA concentration in each well is specified in each figure. For all studies, the plate was incubated for 24 h followed by removal of the media. For SKOV3-FLuc cells, fresh media was added, and the plate was incubated for an additional 24 h before removal of the media. Total cellular metabolic activity was quantified by addition of PrestoBlue™ according to the manufacturer's instructions, after which the reagent was subsequently removed, and expression of either firefly luciferase (SKOV3-FLuc) or nano luciferase (Vero-nLucP) was determined by Steady-Glo® Luciferase Assay System or Nano-Glo® Luciferase Assay System, respectively. Luminescence was measured using a Tecan Infinite Pro 200 plate reader. Cell metabolic activity and reporter gene expression are represented relative to cells treated with an equivalent volume of PBS. Reporter gene expression is normalized to cell metabolic activity. For dose-response studies, IC50 values were determined by non-linear regression analysis using eq. 3

T47D-R cells = assay: Confirmation of palbociclib resistance; format: cell-based; conditions: Homo sapiens; palbociclib-resistant T47D cells (T47D-R)
Description: SKOV3 cells were obtained from ATCC. SKOV3-luc cells were obtained from Cell Biolabs. Vero-E6-nLucP cells were a generous gift from Roman Melnyk. T47D cells were a gift from B. Neel (University Health Network). Palbociclib-resistant T47D cells (T47D-R) were developed by dose escalation of palbociclib up to 500-1000 nM over 6-12 months and was confirmed by a palbociclib IC50 greater than […]. Parental T47D cells (T47D-P) were cultured over the same time frame without palbociclib treatment. Cells were maintained in a humified incubator at 37° C. with 5% atmospheric CO2. RPMI 1640 (SKOV3, T47D) or EMEM (Vero-E6) were used as a base media. Cells were grown in 75 cm^2 tissue culture flasks with 10 mL of media supplemented with 10% FBS, 10 UI/mL penicillin and 10 μg/mL streptomycin. The cells were passaged once per week following detachment with trypsin-EDTA, replacement of the supernatant with fresh media, and subculture into a new flask with fresh media. Subculture ratios between 1:4 and 1:50 were used.

SKOV3 cells = assay: Cellular uptake of DiD-labelled nanoparticles by fluorescence microscopy; format: cell-based; conditions: with DOPC or DSPE; 20 nM T.U. RNA, 3 h
Description: 2.5-5.0×10^3 SKOV3 cells or 1.0×10^4 T47D cells in 25 μL were plated in each well of a 384-well plate (Greiner Bio-One 781097) and allowed to adhere overnight. For endocytosis blocking studies, cells were washed once with Hank's Balanced Salt Solution (HBSS), and then fresh media containing an endocytosis blocker was added and plates were incubated at 37° C. for 30 min prior to dosing. For ApoE supplementation studies and endocytosis-blocking studies, serum free media, serum free media supplemented with ApoE (1.5 μg/mL), complete media, or complete media with hydroxydynasore (20 μM) was added for 30 min prior to dosing). […] The plate was incubated at 37° C. for 3 h after which the media was removed, and the cells were washed with HBSS, fixed for 15 min with 4% (m/v) PFA in PBS, and stained for 15 min with 5 μg/mL Hoechst in PBS before imaging by wide-field fluorescence microscopy imaging as described below.
Fluorescence images were acquired using a Zeiss Apotome Live Cell System (Axio Observer Z.1 inverted fluorescence microscope) with a long working distance 40× Plan Neofluor objective (NA=0.6, Carl Zeiss Canada), and X-Cite 120 LED fluorescence lamp (Lumen Dynamics), and an […]

[6] = no cholesterol versus standard formulation

Row | Structure (SMILES) | Zeta potential (mV) [1] [mV] | Hydrodynamic diameter (nm) [3] [nm] | PDI [3] | Encapsulation efficiency (%) [4] [%] | Small molecule drug mass % [4] [%] | siRNA mass % [4] [%] | pKa [2] | further results
1 | C[C@]12CC[C@@H]3c4ccc(O)cc4C[C@@H](CCCCCCCCC[S+]([O-])CCCC(F)(F)C(F)(F)F)[C@H]3[C@@H]1CC[C@@H]2O (some centres unmarked) [FV, fulvestrant, reference compound] | −19.23 | 204.7 | 0.102 | 14.5 | 52.8 | 0.9 |  | liver bioluminescence [5]: did not show bioluminescence above the baseline; encapsulation and loading efficiencies of siRNA (in words) ([4]; DSPC formulations): low
2 | CCCCCCCCCCCOC(=O)CCCCCN(CCO)CCCCCCCC(=O)OC(CCCCCCCC)CCCCCCCC [SM-102] |  |  |  |  |  |  |  | effect of removing netarsudil without replacement (FLuc in SKOV3-FLuc cells; netarsudil:SM-102 0:10): decrease in potency and loss of encapsulated siRNA; change of IC50 on replacing all of the netarsudil with SM-102 (FLuc in SKOV3-FLuc cells; netarsudil:SM-102 0:50): non-significant decrease in IC50
3 | Cc1ccc(C(=O)OCc2ccc([C@@H](CN)C(=O)Nc3ccc4cnccc4c3)cc2)c(C)c1 [netarsudil] |  |  |  |  |  |  |  | IC50 (FLuc in SKOV3-FLuc cells; 50:0 netarsudil:SM-102, narrowed concentration range (<2 nM)): > 2 nM; IC50 (FLuc in SKOV3-FLuc cells; TBS, 40 mol % netarsudil with 10 mol % ALC-0315): 0.32 nM; IC50 (FLuc in SKOV3-FLuc cells; TBS, 40 mol % netarsudil with 10 mol % MC3): 0.77 nM; IC50 (FLuc in SKOV3-FLuc cells; TBS, 40 mol % netarsudil with 10 mol % SM-102): 0.16 nM; IC50 (FLuc in SKOV3-FLuc cells; neutralized in TBS, 50 mol % netarsudil, no ionizable lipid): 3.8 nM
4 | CC(=O)c1c(C)c2cnc(Nc3ccc(N4CCNCC4)cn3)nc2n(C2CCCC2)c1=O [palbociclib] |  |  |  |  |  |  |  | IC50 (T47D-R cells): > 1000 nM
5 | Fc1ccc(-n2cc(CCCCN3CCC4(CC3)OCc3ccccc34)c3ccccc32)cc1 [siramesine, reference compound] |  |  |  |  |  |  |  | increase in particle size on removal of cholesterol [3, 6]: 4 fold; particle size ([3]; siRNA, standard formulation): ~100 nm; uptake relative to DSPC-based nanoparticles (SKOV3 cells): significantly improve uptake; siRNA encapsulation efficiency ([4]; natively ionizable drug in place of fulvestrant analog, standard formulation): ~85% and ~95%; loss of encapsulated siRNA on removal of cholesterol [4, 6]: ~70%; nanoparticle formation with RNA cargos of varying molecular weight ([4]; siRNA, T.U. RNA, rRNA, mRNA): form nanoparticles encapsulating a range of RNA cargos

More lines, main results first:

Row | Zeta potential (mV) [1] [mV] | Hydrodynamic diameter (nm) [3] [nm] | PDI [3] | Encapsulation efficiency (%) [4] [%] | Small molecule drug mass % [4] [%] | siRNA mass % [4] [%] | Structure (SMILES) | pKa [2] | further results
6 | −3.98 | 338.6 | 0.218 | 52.8 | 57.2 | 2.7 | CN1CCN(CC(=O)N=S(=O)(CCCCCCCCCC2Cc3cc(O)ccc3C3CCC4(C)C(O)CCC4C23)CCCC(F)(F)C(F)(F)F)CC1 (centres unmarked) [7i] | 7.4 | 
7 | −3.56 | 337.1 | 0.225 | 72.0 | 56.2 | 3.7 | CC12CCC3c4ccc(O)cc4CC(CCCCCCCCCS(=O)(CCCC(F)(F)C(F)(F)F)=NC(=O)CCN4CCCC4)C3C1CCC2O (centres unmarked) [7j] | 7.6 | 
8 | −8.53 | 426.9 | 0.060 | 80.2 | 55.1 | 4.2 | CN(C)CCC(=O)N=S(=O)(CCCCCCCCCC1Cc2cc(O)ccc2C2CCC3(C)C(O)CCC3C12)CCCC(F)(F)C(F)(F)F (centres unmarked) [7k] | 7.8 | 
9 | −6.62 | 447.8 | Multimodal | 88.1 | 53.4 | 4.7 | CC12CCC3c4ccc(O)cc4CC(CCCCCCCCCS(=O)(CCCC(F)(F)C(F)(F)F)=NC(=O)CN)C3C1CCC2O (centres unmarked) [7m] | 8.1 | 
